Test results from ChEMBL document CHEMBL3301464, “MMV Malaria Box anti-babesial screening”.
pIC50: −log10 of the molar value.

What was measured:
[1] = (§1) MMV: Anti-babesial activity assay. Parasite pRBCs at 1% parasitemia were cultivated in 100 ul with 96-well plates at 2.5% and 5% hematocrits. The parasites were cultivated in triplicate for 4 days without replacement of the medium for each concentration of the compound.; assay type: functional, Babesia equi
[2] = as §1; assay type: functional, Babesia caballi
[3] = as §1; assay type: functional, Babesia bovis
[4] = as §1; assay type: functional, Babesia bigemina

SMILES: CCOc1cc(CNC(C)C(O)c2ccccc2)cc(Cl)c1OCC (stereo unspecified)
- pIC50 [1]: 5.25
- pIC50 [2]: 5.10
- pIC50 [3]: 7.09
- pIC50 [4]: 6.04

SMILES: COc1ccc(CCN2CCC(CN(C)Cc3cnn(-c4ccccc4)c3)CC2)cc1
- pIC50 [1]: 6.21
- pIC50 [2]: 5.61
- pIC50 [3]: 6.06
- pIC50 [4]: 5.37

SMILES: CCCCCCc1cc2cc(-c3nc4ccccc4[nH]3)c(=Nc3ccccc3C)oc2cc1O
- pIC50 [1]: < 4.60
- pIC50 [2]: 4.60
- pIC50 [3]: 4.71
- pIC50 [4]: 4.77

SMILES: CCN(CC)CCNc1ccnc2cc3ccccc3cc12
- pIC50 [1]: 5.24
- pIC50 [2]: 5.29
- pIC50 [3]: 5.11
- pIC50 [4]: 5.49

SMILES: COc1ccc(C(C)=O)cc1N1C(=O)C2C(C1=O)C1(c3ccccc3)C(=O)C2(c2ccccc2)C(c2ccc(C)cc2)=C1c1ccc(C)cc1 (stereo unspecified)
- pIC50 [1]: 4.77
- pIC50 [2]: 5.07
- pIC50 [3]: 4.76
- pIC50 [4]: 4.81

SMILES: Cc1cccc(-n2ncc3c(O)nc(-n4nc(C)cc4NC(=O)c4cc5ccccc5o4)nc32)c1
- pIC50 [1]: 6.33
- pIC50 [2]: 7.14
- pIC50 [3]: 5.35
- pIC50 [4]: 6.39

SMILES: COc1ccc2c(c1)C1(Nc3ccccc3-c3nc4ccccc4n31)C(=O)N2 (stereo unspecified)
- pIC50 [1]: 5.45
- pIC50 [2]: 5.41
- pIC50 [3]: 4.78
- pIC50 [4]: 4.85

SMILES: O=C(Nc1ccsc1C(=O)NC1CCCCC1)c1ccc(F)cc1
- pIC50 [1]: 5.25
- pIC50 [2]: 4.75
- pIC50 [3]: 7.10
- pIC50 [4]: 7.00

SMILES: OC(CNC1CCCCC1)Cn1c2ccc(I)cc2c2cc(I)ccc21 (stereo unspecified)
- pIC50 [1]: 5.66
- pIC50 [2]: 5.43
- pIC50 [3]: 5.89
- pIC50 [4]: 4.78

SMILES: O=C(NCc1ccco1)C1CCN(S(=O)(=O)c2ccc(Cl)cc2)CC1
- pIC50 [1]: 5.12
- pIC50 [2]: 4.60
- pIC50 [3]: < 4.60
- pIC50 [4]: 4.89

SMILES: CCOc1ccc(C2N(C)c3ccccc3N2C)cc1
- pIC50 [1]: 5.45
- pIC50 [2]: 6.30
- pIC50 [3]: 5.26
- pIC50 [4]: 6.07

SMILES: COc1ccc(N2CCN(C(CNC(=O)C3CCCCC3)c3ccc4c(c3)OCO4)CC2)cc1 (stereo unspecified)
- pIC50 [1]: 4.89
- pIC50 [2]: 5.12
- pIC50 [3]: 4.60
- pIC50 [4]: 5.12

SMILES: Cc1ccc(-c2cc(C(=O)Nc3ccc(S(=O)(=O)N4CCCCC4)cc3)[nH]n2)c(O)c1
- pIC50 [1]: 5.08
- pIC50 [2]: 5.00
- pIC50 [3]: < 4.60
- pIC50 [4]: 5.61

SMILES: CCN(CC)CCNc1ncnc2c1[nH]c1ccc(Br)cc12
- pIC50 [1]: 5.34
- pIC50 [2]: 5.38
- pIC50 [3]: 6.00
- pIC50 [4]: 5.52

SMILES: COc1ccc(Nc2cc(C)nc(NCc3ccccc3)n2)cc1
- pIC50 [1]: 4.82
- pIC50 [2]: 4.84
- pIC50 [3]: 7.27
- pIC50 [4]: 7.17

SMILES: COc1ccc(CCn2c(=N)c(C(=O)NCc3cccnc3)cc3c(=O)n4cccc(C)c4nc32)cc1
- pIC50 [1]: 6.39
- pIC50 [2]: 5.37
- pIC50 [3]: 6.89
- pIC50 [4]: 7.28

SMILES: COc1ccc(C(O)(CCC(C)C)C(CN2CCOCC2)c2ccc(Cl)cc2)cc1 (stereo unspecified)
- pIC50 [1]: 5.46
- pIC50 [2]: 4.83
- pIC50 [3]: 7.04
- pIC50 [4]: 7.17

SMILES: OC(Cn1nnc2ccccc21)Cn1c2ccc(Br)cc2c2cc(Br)ccc21 (stereo unspecified)
- pIC50 [1]: 4.90
- pIC50 [2]: 4.80
- pIC50 [3]: 7.00
- pIC50 [4]: 5.89

SMILES: CCOC(=O)c1cnc2ccc(CC)cc2c1O
- pIC50 [1]: 4.83
- pIC50 [2]: 4.87
- pIC50 [3]: < 4.60
- pIC50 [4]: 4.76

SMILES: CN(C)CCCNCc1ccc(-c2ccc(F)c(Cl)c2)o1
- pIC50 [1]: 5.39
- pIC50 [2]: 6.16
- pIC50 [3]: 5.61
- pIC50 [4]: 5.34

SMILES: CCc1ccc(CNCC(O)c2ccccc2)cc1 (stereo unspecified)
- pIC50 [1]: 4.82
- pIC50 [2]: 5.38
- pIC50 [3]: 4.96
- pIC50 [4]: 5.12

SMILES: CN1CCN(c2ncnc3c2[nH]c2ccc(Cl)cc23)CC1
- pIC50 [1]: 5.08
- pIC50 [2]: 5.19
- pIC50 [3]: 5.00
- pIC50 [4]: 5.07

SMILES: COC(=O)c1ccc(C2C3=C(O)CC(c4ccc(F)cc4)CC3=Nc3ccccc3N2C(=O)c2ccccc2)cc1 (stereo unspecified)
- pIC50 [1]: 4.98
- pIC50 [2]: 5.16
- pIC50 [3]: 7.20
- pIC50 [4]: 7.07

SMILES: Cc1ccc(C)c(Cn2c(N3CCC(C(=O)NCc4cccs4)CC3)nc3ccccc32)c1
- pIC50 [1]: 5.00
- pIC50 [2]: 4.78
- pIC50 [3]: 6.89
- pIC50 [4]: 7.00
